According to patent publication US20050004126A1 (priority 2001, published 2005):
Values belong to the molecule of their own block, whether it stands above or below them.

Legend:
MMP-13 = MMP-13 (Homo sapiens, UniProt P45452); conditions: cited from earlier work
[1] = molecular target: MMP-13CD (catalytic domain of collagenase 3) (Homo sapiens, UniProt P45452); test: Thiopeptolide hydrolysis assay, MMP-13; conditions: IC50 μM, Table V; MMP-13;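 note: inhibition of enzymatic thiopeptolide substrate cleavage (100 µM) in pH 6.0 MES buffer with CaCl2 and DTNB, comparing hydrolysis with versus without inhibitor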
Procedure: They measure the amount by which a test compound reduces the hydrolysis of a thiopeptolide substrate caused by a matrix metalloproteinase enzyme.
Thiopeptolide substrates show virtually no decomposition or hydrolysis in the absence of a matrix metalloproteinase enzyme. A typical thiopeptolide substrate commonly utilized for assays is Ac-Pro-Leu-Gly-thioester-Leu-Leu-Gly-OEt. A 100 μL assay mixture will contain 50 mM of 2-morpholinoethane sulfonic acid monohydrate (MES, pH 6.0) 10 mM CaCl2, 100 μM thiopeptolide substrate, and 1 mM 5,5′-dithio-bis-(2-nitro-benzoic acid) (DTNB). […] Assays are carried out with and without matrix metalloproteinase inhibitor compounds, and the amount of hydrolysis is compared for a determination of inhibitory activity of the test compounds.

other MMP enzymes = conditions: Chen et al.; cited from earlier work

SMILES: Cc1cc(C)c(N(Cc2ccccc2)S(=O)(=O)c2ccc(OCCNC(=O)c3cc4ccccc4o3)cc2)c(C(=O)NO)c1 [WAY-170523]
selectivity for MMP-13 (MMP-13; as reported by Chen et al.): selective inhibitor of MMP-13

melting point: 210 °C
IC50 [1]: 0.0026 µM
SMILES: COC(=O)c1ccc(Cn2c(=O)c3cc(C(=O)NCc4ccc(OC)cc4)ccc3n3cnnc23)cc1 [Synthesis Example 59, Methyl 4-{7-[(4-methoxybenzyl)-carbamoyl]-5-oxo-5H-[1,2,4]triazolo[4,3-a]quinazol-4-ylmethyl}benzoate]

SMILES: O=C(NCCCCN1CCOCC1)c1cc2ccccc2o1 [compound of the formula I]
inhibition against MMP-13 (MMP-13; high throughput screening hit, Chen et al.): weak inhibition
activity against other MMP enzymes (other MMP enzymes): inactive
